From patent publication US7041682B2, “NK1 antagonists” (Schering Corporation, priority 2002, dated 2006)
“And” between values parts separate entries of the source, which are not always exact repeats. Equal values may be shown once.

target: NK1 receptor (Homo sapiens, UniProt P25103); test: NK1 receptor binding: inhibition of the NK1 agonist Substance P, Ki from percent of maximum specific binding; details: inhibition constant from the concentration giving 50% inhibition of binding (Chang-Prusoff equation)
Sequence (P25103 whole entry, species assumed): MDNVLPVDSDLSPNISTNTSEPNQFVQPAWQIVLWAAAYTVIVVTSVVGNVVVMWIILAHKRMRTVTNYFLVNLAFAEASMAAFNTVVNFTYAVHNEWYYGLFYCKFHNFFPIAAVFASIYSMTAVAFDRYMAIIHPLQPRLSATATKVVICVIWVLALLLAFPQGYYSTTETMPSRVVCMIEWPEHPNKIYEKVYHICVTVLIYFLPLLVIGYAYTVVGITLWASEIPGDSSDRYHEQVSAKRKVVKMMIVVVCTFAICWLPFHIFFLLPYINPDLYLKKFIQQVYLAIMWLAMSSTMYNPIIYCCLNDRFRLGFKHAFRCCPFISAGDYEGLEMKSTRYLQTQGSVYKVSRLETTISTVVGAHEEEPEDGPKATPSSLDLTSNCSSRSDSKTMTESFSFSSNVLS
Text: The in vitro and in vivo NK1, NK2 and NK3 activities of the compounds having the formula (I) can be determined by various procedures known in the art, such as a test for their ability to inhibit the activity of the NK1 agonist Substance P. The percent inhibition of neurokinin agonist activity is the difference between the percent of maximum specific binding (“MSB”) and 100%. The percent of MSB is defined by the following equation, wherein “dpm” represents “disintegrations per minute”:
[formula] The concentration at which the compound produces 50% inhibition of binding is then used to determine an inhibition constant (“Ki”) using the Chang-Prusoff equation. In vivo activity may be measured by inhibition of an agonist-induced foot tapping in a gerbil, as described in Science, 281, 1640–1695 (1998), which is herein incorporated by reference thereto.

Q: Which Ki does the source give for `O=C1CCCN1N1CCC(COC(CO)c2cc(C(F)(F)F)cc(C(F)(F)F)c2)(c2ccccc2)CC1` (centres unmarked) [Example 57] here?
A: 0.3 to 3 nM

Q: For `C[C@@H](OCC1(c2ccccc2)CCN(N2CCCC2=O)CC1)c1cc(C(F)(F)F)cc(C(F)(F)F)c1` [Example 56], which Ki is on record?
A: 0.3 to 3 nM and ~0.3 nM

Q: For `O=c1[nH]ncn1N1CCC(COCc2cc(C(F)(F)F)cc(C(F)(F)F)c2)(c2ccccc2)CC1` [Example 64], which Ki is on record?
A: 0.3 to 3 nM

Q: How did the Ki turn out when `O=C1CCCN1N1CCC(COCc2cc(C(F)(F)F)cc(C(F)(F)F)c2)(c2ccccc2)CC1` [Example 49] was run?
A: 0.3 to 3 nM

Q: `O=C1NCCN1N1CCC(COCc2cc(C(F)(F)F)cc(C(F)(F)F)c2)(c2ccccc2)CC1` [Example 51] was tested. Which Ki did it give?
A: 0.3 to 3 nM
